IC50 data for 13 compounds are collected here from patent publication US20200087258A1, “INHIBITOR OF CITRATE TRANSPORTER AND THEIR USE IN THERAPY” (Eternygen GmbH, priority 2017, published 2020).

For assay [1], the target named is T1, INDY (Homo sapiens, UniProt Q86YT5). Briefly: 14C-citrate uptake in HEK293 cells overexpressing recombinant human INDY (NaCT). Type of assay: cell-based. Further details: expressed in transfected cells; host or cells: HEK293. The method, boiled down:
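HEK293 cells overexpressing human NaCT, 50,000/well, preincubated 5-30 min at 37 °C with compound in pH 6.5 Na+ buffer. 14C-citrate ([…]) uptake then ran 20-90 min at 37 °C, followed by ice-cold washes, NaOH lysis and scintillation counting. 10 mM citrate served as positive control.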

The target of assay [2] is T1, INDY. Briefly: 14C-citrate uptake in HepG2 cells endogenously expressing INDY (NaCT). Type of assay: cell-based. The following applies: endogenous INDY. The method, then: The compound was obtained by screening of a library containing more than 50,000 lead-like compounds and fragments. The library was tested using a functional citrate uptake assay with HEK293 cells overexpressing recombinant human INDY. The following hit confirmation was conducted in the same assay system. To confirm the activity of selected compounds on the target INDY another cell assay was conducted. In this assay system citrate uptake was measured using HepG2 cells which endogenously express INDY. Furthermore selectivity of selected compounds was tested for two other transporters in different assay systems. The first transporter was the glutamate transporter GLT-1 tested in a glutamate uptake assays using HEK293 cells overexpressing recombinant human GLT-1. The second transporter was the glucose transporter GLUT1 tested in a glucose uptake assay using Huh-7 cells which endogenously express GLUT1. Compounds were considered to be selective with an at least 5-fold higher activity for INDY than for the other two transporters.
Cells were maintained in cell medium using cell culture grade flasks (CellSTACK Corning, 500 cm2 dishes or T175 depending on cell number). The selection antibiotic and G418 (800 μg/ml) was added during cultivation but not for seeding into assay plates. For splitting, cells were washed with PBS (w/o Ca2+, Mg2+, phenol red) and detached with Trypsin/EDTA. Throughout cultivation cells were kept sub-confluent. Detached cells (50,000 cells/well) were seeded in 96-well plates (white, clear bottom from Corning #655098) and incubated over night before usage in the assay. The following media were used. For HEK293 cells expressing INDY MEM (PAA)+10% FCS+1×P/S+2 mM L-Gln; for HEK293 cells expressing GLT-1 DMEM (Gibco)+10% FCS+400 µg/ml G418; for Huh7 cells DMEM (Gibco)+10% FCS+2 mM L-Gin (+1×P/S); for HepG2 cells MEM (PAA, Cat # E15-024)+10% FCS+2 mM L-Gin+1×NEAA+1 mM Na-Pyruvat
The following assay buffers for the particular uptake reaction were used. Citrate uptake buffer: 120 mM NaCl, 5.4 mM KCl, 0.8 mM MgSO4, 5 mM glucose, 1.8 mM CaCl2, 25 mM Hepes, 25 mM MES, pH 6.5. Glutamate uptake buffer: HBSS, 1 mM CaCl2, 1 mM MgCl2, 20 mM Hepes pH 7.4. Glucose uptake buffer: 25 mM Hepes+25 mM MES pH 7.4, 120 mM NaCl, 5.4 mM KCl, 1.8 mM CaCl2, 0.8 mM MgSO4.
INDY mediated citrate uptake was also determined in HepG2 cells. To determine the uptake of ^14C labelled citrate into cells, HepG2 cells endogenously expressing human NaCT were used. (Gopal et al. 2007 Am J Physiol Gastrointest Liver Physiol 292).
HepG2 cells were seeded into white clear-bottom 96-well plates (50,000/well) coated with collagen and incubated at 37° C. for 16-24 hours. After that plates were washed once with assay buffer using automated washing/LS 405 Selectors, BioTek ending with a buffer volume of 40 μl. Then 5 μl of compound solution in assay buffer was added and incubated for 5 min at 37° C. in cell incubator, HERA cell Heraeus. Afterwards 10 μl of substrate 14C-citrate (10 nM) were added and incubated for another 90 min at 37° C. in cell incubator, HERAcell. Then plates were washed 3× with 200 μl buffer and […] cell lysis induced by adding 50 μl ice-cold NaOH (100 mM). Plates were incubated for 25 min at RT on a plate shaker and afterwards 200 μl scintillation fluid was added and incubated for 15 min on a plate shaker at RT and for another 15 min without shaking at RT. Plates were measured using a TopCount system. As a positive control 5 mM citrate was applied. It is possible to use this assay also in analogy in a 384-well plate format.

T1 sequence (Q86YT5 whole entry): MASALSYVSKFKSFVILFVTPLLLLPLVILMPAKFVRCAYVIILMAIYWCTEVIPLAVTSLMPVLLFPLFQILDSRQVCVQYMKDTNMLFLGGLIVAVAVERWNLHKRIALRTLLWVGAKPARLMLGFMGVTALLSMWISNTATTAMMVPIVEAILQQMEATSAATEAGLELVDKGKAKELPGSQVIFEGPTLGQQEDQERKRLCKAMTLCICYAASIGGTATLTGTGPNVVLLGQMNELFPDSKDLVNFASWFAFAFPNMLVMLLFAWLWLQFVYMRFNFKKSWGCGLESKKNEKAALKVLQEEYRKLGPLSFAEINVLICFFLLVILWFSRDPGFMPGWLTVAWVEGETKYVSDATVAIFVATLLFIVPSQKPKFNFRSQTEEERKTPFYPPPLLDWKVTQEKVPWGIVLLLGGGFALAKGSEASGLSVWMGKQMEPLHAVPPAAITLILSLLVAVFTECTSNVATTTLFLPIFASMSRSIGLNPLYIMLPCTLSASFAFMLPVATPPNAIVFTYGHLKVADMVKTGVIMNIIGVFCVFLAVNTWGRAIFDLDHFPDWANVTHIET

As a reminder, the IC50 is the concentration needed to halve the response being measured. On to `O=C(NCc1ccccc1O)C1CCN(S(=O)(=O)/C=C/c2ccccc2)CC1` [Example 41, N-[(2-hydroxyphenyl)methyl]-1-[(E)-2-phenylethenesulfonyl]piperidine-4-carboxamide], for which the IC50 in assay [1] was 1.8 µM; in assay [2], 3.2 µM.

In the case of `O=C(NCc1ccccc1F)C1CCN(S(=O)(=O)c2ccc(Cl)cc2Cl)CC1` [Example 43, 1-(2,4-dichlorobenzenesulfonyl)-N-[(2-fluorophenyl)methyl]piperidine-4-carboxamide], the IC50 came out at 0.3 µM in assay [1] and 0.4 µM in assay [2].

Consider `CC(C)(C)c1ccc(S(=O)(=O)N2CC(C(=O)NCc3ccccc3F)C2)cc1` [Example 46, 1-(4-tert-butylbenzenesulfonyl)-N-[(2-fluorophenyl)methyl]azetidine-3-carboxamide], for which the concentration for half-maximal inhibition (IC50) in assay [1] and in assay [2] was 9.3 µM each time.

With `O=C(NCc1ccccc1F)C1CCN(S(=O)(=O)c2ccc3c(c2)OC(F)(F)O3)CC1` [Example 47, 1-[(2,2-difluoro-2H-1,3-benzodioxol-5-yl)sulfonyl]-N-[(2-fluorophenyl)methyl]piperidine-4-carboxamide], the IC50 in assay [1] and in assay [2] was 0.7 µM throughout.

For `O=C(NCc1ccccn1)C1CCN(S(=O)(=O)c2ccc(OC(F)(F)F)cc2)CC1` [Example 58, N-[(pyridin-2-yl)methyl]-1-[4-(trifluoromethoxy)benzenesulfonyl]piperidine-4-carboxamide], the figures for the IC50 in assay [1] and in assay [2] were 6.4 µM and 2.7 µM, respectively.

Turning to `O=C(NCc1ccccc1F)C1CCN(S(=O)(=O)c2cccc(Cl)c2)CC1` [Example 59, 1-(3-chlorobenzenesulfonyl)-N-[(2-fluorophenyl)methyl]piperidine-4-carboxamide], the IC50 worked out at 1.1 µM in assay [1] and 0.9 µM in assay [2].

Consider `O=C(NCc1ccccn1)C1CCN(S(=O)(=O)c2cc(Cl)ccc2Cl)CC1` [Example 62, 1-(2,5-dichlorobenzenesulfonyl)-N-[(pyridin-2-yl)methyl]piperidine-4-carboxamide], for which the IC50 in assay [1] stood at 8.2 µM; in assay [2], 4.6 µM.

In the case of `O=C(NCc1ccccn1)C1CCN(S(=O)(=O)c2ccc(Cl)c(Cl)c2)CC1` [Example 67, 1-(3,4-dichlorobenzenesulfonyl)-N-[(pyridin-2-yl)methyl]piperidine-4-carboxamide], the IC50 in assay [1] was found to be 18.3 µM; in assay [2] it was 7.2 µM.

On to `O=C(NCc1ccccc1CO)C1CCN(S(=O)(=O)/C=C/c2ccccc2)CC1` [Example 69, N-{[2-(hydroxymethyl)phenyl]methyl}-1-[(E)-2-phenylethenesulfonyl]pipendine-4-carboxamide], for which the values for the IC50 in assay [1] and in assay [2] were 11.7 µM and 4.5 µM, respectively.

Take `O=C(NCc1ccccn1)C1CCN(S(=O)(=O)c2ccc(C(F)(F)F)cc2Cl)CC1` [Example 74, 1-[2-chloro-4-(trifluoromethyl)benzenesulfonyl]-N-[(pyridin-2-yl)methyl]piperidine-4-carboxamide]: the values for the IC50 in assay [1] and in assay [2] were 7.1 µM and 5.1 µM, respectively.

Consider `O=C(NCc1ccccn1)C1CCN(S(=O)(=O)c2cccc(C(F)(F)F)c2)CC1` [Example 75, N-[(pyridin-2-yl)methyl]-1-[3-(trifluoromethyl)benzenesulfonyl]pipendine-4-carboxamide], for which the IC50 in assay [1] came out at 5.7 µM; in assay [2], 3.3 µM.

Turning to `O=C(NCc1ccccn1)C1CCN(S(=O)(=O)c2cc(F)cc(Cl)c2)CC1` [Example 78, 1-(3-chloro-5-fluorobenzenesulfonyl)-N-[(pyridin-2-yl)methyl]pipendine-4-carboxamide], the IC50 in assay [1] is 4.9 µM; in assay [2], 2.4 µM.

On to `O=C(NCc1ccccn1)C1CCN(S(=O)(=O)c2cc(F)cc(C(F)(F)F)c2)CC1` [Example 84, 1-[3-fluoro-5-(trifluoromethyl)benzenesulfonyl]-N-[(pyridin-2-yl)methyl]pipendine-4-carboxamide], for which the IC50 in assay [1] was found to be 4.3 µM; in assay [2], 2.2 µM.
